Experimental data reported in ChEMBL document CHEMBL5214985, “meta-Ureidophenoxy-1,2,3-triazole hybrid as a novel scaffold for promising HepG2 hepatocellular carcinoma inhibitors: Synthesis, biological evaluation and molecular docking studies” (Bioorg Med Chem, 2022).
Calls of active or inactive are those of the source. No cut-off for these calls is given here.

What was measured:
HepG2 [1] = test: Anticancer activity against human HepG2 cells assessed as inhibition of cell viability incubated for 72 hrs by MTT assay; format: functional, cell-based; conditions: HepG2, 72 h
[2] = Cytotoxicity against human MRC5 cells assessed as inhibition of cell viability incubated for 72 hrs by MTT assay; format: toxicity, cell-based
[3] = Selectivity index, ratio of IC50 for cytotoxicity against human MRC5 cells to IC50 for anticancer activity against human HepG2 cells; format: toxicity, cell-based; conditions: MRC5 cells versus HepG2 cells, read-out: Ratio IC50
HepG2 [4] = test: Potency index, ratio of Sorafenib IC50 to test compound IC50 for anticancer activity against human HepG2 cells assessed as inhibition of cell viability incubated for 72 hrs by MTT assay; format: functional
HepG2 [5] = test: Induction of apoptosis in human HepG2 cells at 5 uM incubated for 72 hrs by Annexin V-FITC/PI staining based flow cytometry; format: functional, cell-based

Compound | IC50 (HepG2 [1]) | IC50 at 72 h [2] | selectivity ratio [3] | Ratio IC50 (HepG2 [4]) | Activity (HepG2 [5])
Cc1cccc(-n2cc(COc3cccc(NC(=O)Nc4ccc(Cl)c(C(F)(F)F)c4)c3)nn2)c1 | 7270 nM |  |  |  | 
CC(C)c1cccc(-n2cc(COc3cccc(NC(=O)Nc4ccc(Cl)c(C(F)(F)F)c4)c3)nn2)c1 | 3250 nM | 21.4 µM | 6.58 |  | 
N#Cc1ccc(-n2cc(COc3cccc(NC(=O)Nc4ccc(Cl)c(C(F)(F)F)c4)c3)nn2)cc1 | 2980 nM |  |  |  | 
CCc1cccc(-n2cc(COc3cccc(NC(=O)Nc4ccc(Cl)c(C(F)(F)F)c4)c3)nn2)c1 | 37900 nM |  |  |  | 
CCc1ccccc1-n1cc(COc2cccc(NC(=O)Nc3ccc(Cl)c(C(F)(F)F)c3)c2)nn1 | 3530 nM |  |  |  | 
O=C(Nc1cccc(OCc2cn(-c3ccccc3I)nn2)c1)Nc1ccc(Cl)c(C(F)(F)F)c1 | 2870 nM | 21.9 µM | 7.61 |  | 
O=C(Nc1cccc(OCc2cn(-c3ccccc3Br)nn2)c1)Nc1ccc(Cl)c(C(F)(F)F)c1 | 2810 nM |  |  |  | 
O=C(Nc1cccc(OCc2cn(-c3cccc(I)c3)nn2)c1)Nc1ccc(Cl)c(C(F)(F)F)c1 | 4780 nM |  |  |  | 
Cc1ccc(-n2cc(COc3cccc(NC(=O)Nc4ccc(Cl)c(C(F)(F)F)c4)c3)nn2)cc1 | 5430 nM |  |  |  | 
N#Cc1cccc(-n2cc(COc3cccc(NC(=O)Nc4ccc(Cl)c(C(F)(F)F)c4)c3)nn2)c1 | 2760 nM | 2.96 µM | 1.07 |  | 
COc1ccccc1-n1cc(COc2cccc(NC(=O)Nc3ccc(Cl)c(C(F)(F)F)c3)c2)nn1 | 11300 nM |  |  |  | 
COc1ccc(-n2cc(COc3cccc(NC(=O)Nc4ccc(Cl)c(C(F)(F)F)c4)c3)nn2)cc1 | 4680 nM |  |  |  | 
Cc1ccccc1-n1cc(COc2cccc(NC(=O)Nc3ccc(Cl)c(C(F)(F)F)c3)c2)nn1 | 3440 nM |  |  |  | 
CNC(=O)c1cc(Oc2ccc(NC(=O)Nc3ccc(Cl)c(C(F)(F)F)c3)cc2)ccn1 [SORAFENIB] |  | 11.1 µM |  |  | Active

More lines, main results first:

IC50 (HepG2 [1]) | Compound | IC50 at 72 h [2] | selectivity ratio [3] | Ratio IC50 (HepG2 [4]) | Activity (HepG2 [5])
2490 nM | O=C(Nc1cccc(OCc2cn(-c3ccc(Cl)cc3)nn2)c1)Nc1ccc(Cl)c(C(F)(F)F)c1 |  |  |  | 
1950 nM | CCc1ccc(-n2cc(COc3cccc(NC(=O)Nc4ccc(Cl)c(C(F)(F)F)c4)c3)nn2)cc1 |  |  |  | 
2470 nM | CC(C)c1ccc(-n2cc(COc3cccc(NC(=O)Nc4ccc(Cl)c(C(F)(F)F)c4)c3)nn2)cc1 |  |  |  | 
2120 nM | O=C(Nc1cccc(OCc2cn(-c3cccc(F)c3)nn2)c1)Nc1ccc(Cl)c(C(F)(F)F)c1 |  |  |  | 
1970 nM | N#Cc1ccccc1-n1cc(COc2cccc(NC(=O)Nc3ccc(Cl)c(C(F)(F)F)c3)c2)nn1 | 17.5 µM | 8.89 |  | 
1900 nM | CC(C)c1ccccc1-n1cc(COc2cccc(NC(=O)Nc3ccc(Cl)c(C(F)(F)F)c3)c2)nn1 |  |  |  | 
1350 nM | O=C(Nc1cccc(OCc2cn(-c3ccc(F)cc3)nn2)c1)Nc1ccc(Cl)c(C(F)(F)F)c1 | 4.74 µM | 3.52 |  | 
2020 nM | O=C(Nc1cccc(OCc2cn(-c3cccc(Cl)c3)nn2)c1)Nc1ccc(Cl)c(C(F)(F)F)c1 |  |  |  | 
2690 nM | O=C(Nc1cccc(OCc2cn(-c3ccc(I)cc3)nn2)c1)Nc1ccc(Cl)c(C(F)(F)F)c1 | 6.84 µM | 2.55 |  | 
1040 nM | O=C(Nc1cccc(OCc2cn(-c3cccc(Br)c3)nn2)c1)Nc1ccc(Cl)c(C(F)(F)F)c1 | 11.9 µM | 11.5 | 5 | Active
1780 nM | O=C(Nc1cccc(OCc2cn(-c3ccccc3)nn2)c1)Nc1ccc(Cl)c(C(F)(F)F)c1 | 18.4 µM | 10.3 | 2.8 | 
1310 nM | COc1cccc(-n2cc(COc3cccc(NC(=O)Nc4ccc(Cl)c(C(F)(F)F)c4)c3)nn2)c1 | 8.57 µM | 6.55 |  | 
2320 nM | O=C(Nc1cccc(OCc2cn(-c3ccccc3C(F)(F)F)nn2)c1)Nc1ccc(Cl)c(C(F)(F)F)c1 | 8.23 µM | 3.55 |  | 
1960 nM | O=C(Nc1cccc(OCc2cn(-c3ccccc3Cl)nn2)c1)Nc1ccc(Cl)c(C(F)(F)F)c1 |  |  |  | 
2730 nM | O=C(Nc1cccc(OCc2cn(-c3ccc(Br)cc3)nn2)c1)Nc1ccc(Cl)c(C(F)(F)F)c1 | 11 µM | 4.03 |  | 
1270 nM | O=C(Nc1cccc(OCc2cn(-c3cccc(C(F)(F)F)c3)nn2)c1)Nc1ccc(Cl)c(C(F)(F)F)c1 |  |  |  | 
1800 nM | O=C(Nc1cccc(OCc2cn(-c3ccc(C(F)(F)F)cc3)nn2)c1)Nc1ccc(Cl)c(C(F)(F)F)c1 |  |  |  | 
1520 nM | O=C(Nc1cccc(OCc2cn(-c3ccccc3F)nn2)c1)Nc1ccc(Cl)c(C(F)(F)F)c1 |  |  |  | 
